# Measured values as given in patent EP4741383A1, “COMPOUND AND USE THEREOF AS ANTI-CANCER DRUG” (Tyligand Bioscience (Shanghai) Limited, priority 2023, dated 2025).
# Assays:
# KYSE520 = assay: CellTiter-Glo cell proliferation inhibition, KYSE520; format: cell-based, human; conditions: Homo sapiens, KYSE-520; KYSE520 cells, 120 hours, CellTiter-Glo
# From the text: In this study, the CellTiter-Glo® Luminescent Cell Viability Assay kit from Promega was used to evaluate the inhibitory effects of the disclosed compounds on the proliferation of cell lines KYSE520 (a human esophageal squamous cell carcinoma cell line dependent on SHP2 for growth), MeWo (a human malignant melanoma cell line), and MV4-11 (an RTK-mutant human acute monocytic leukemia cell line).
# KYSE520 cells (Nanjing Kebaio Biotechnology Co., Ltd., Catalog #CBP60658) were thawed by rapidly shaking the cryovial in a 37 °C water bath to thaw within 1 minute. The thawed cell suspension was mixed homogeneously with RPMI 1640 medium (HyClone, Catalog #SH30027.01) containing 10% FBS (ExCell, Catalog #FND500), centrifuged at 1000 rpm for 5 minutes, and the supernatant was discarded. The cell pellet was resuspended in 5 mL of complete culture medium (RPMI 1640 medium containing 10% FBS) and placed in a cell culture flask with 25 cm^2 of bottom area, then cultured in a cell culture incubator at 37 °C, 95% humidity, and 5% CO2. Cell passaging was performed when the cell confluence reached approximately 80%. During cell passaging, the old culture medium was discarded, the cells were washed once with DPBS (Thermo Fisher, Catalog #14190-144), and 1 mL of trypsin (Thermo Fisher, Catalog #25200072) was added to digest the cells. When the cells dispersed into single cells and detached from the bottom of the culture flask, 3 mL of fresh complete culture medium was added to stop the digestion. After gently pipetting the cell suspension, 1/5 of the cell suspension was retained, 5 mL of fresh complete culture medium was added, and after mixing, the cells were placed in a cell culture flask for further culture. Cell plating was performed when the cell confluence again reached approximately 80%. During cell plating, following the cell passaging method, 1/5 of the cell suspension was retained for continued culture, and the remaining 4/5 of the cell suspension was placed in a 15 mL centrifuge tube. Cell viability was determined using the trypan blue exclusion method to ensure that cell viability was above 90%. A cell suspension with a density of 2.22 × 10^4 cells/mL was prepared using complete culture medium, and 135 µL of the cell suspension was added to a 96-well transparent flat-bottom black-walled cell culture plate (Greiner, Catalog #655090), resulting in a cell density of 3000 viable cells per well. A control group containing only complete culture medium without cells and compounds (i.e., culture medium control) and a control group containing cells but no compound (i.e., cell control) were set up. The cell plates were incubated overnight in a cell culture incubator. First, a 10 mM stock solution of the compound (Example compound and positive control compound 11a-1) in DMSO (Damas-beta, catalog #75927R) was serially diluted 3-fold to the 9th concentration, and a 10th concentration containing only DMSO (without compound) was also prepared as a control. Then, the DMSO solutions containing different concentrations of the compound were diluted 100-fold with complete culture medium, resulting in a 1% DMSO concentration in each solution. Finally, 15 µL of each solution was added to the corresponding wells of the cell culture plate, resulting in a starting compound concentration of 10 µM, with a 3-fold dilution between adjacent concentrations, and a final DMSO concentration of 0.1% in the cell culture plate. The cell plates were then incubated in the cell culture incubator for another 120 hours.
# For endpoint detection, CellTiter-Glo reagent (Promega, catalog number #G7573, CellTiter-Glo® Luminescent Cell Viability Assay Kit) was melt and each cell plate was moved to room temperature for equilibration for 30 minutes. 75 µL (KYSE520 cells) or 50 µL (MeWo cells and MV 4-11 cells) of CellTiter-Glo was added to each well of the corresponding cell plate. The plates were shaken on a track-mounted shaker for 2 minutes to fully lyse the cells. […]
# [1] = target: T1, SHP2 enzyme (catalytic domain, amino acid sequence 224-528) (Homo sapiens, UniProt Q06124); assay: SHP2 enzyme inhibition assay (DiFMUP substrate, fluorescence); format: biochemical; conditions: for IC50: SHP2 catalytic domain, DiFMUP substrate, 30 min pre-incubation, read-out: S HP2 I C50
# T1 construct: purchased GenScript
# T1 sequence (Q06124 224-528): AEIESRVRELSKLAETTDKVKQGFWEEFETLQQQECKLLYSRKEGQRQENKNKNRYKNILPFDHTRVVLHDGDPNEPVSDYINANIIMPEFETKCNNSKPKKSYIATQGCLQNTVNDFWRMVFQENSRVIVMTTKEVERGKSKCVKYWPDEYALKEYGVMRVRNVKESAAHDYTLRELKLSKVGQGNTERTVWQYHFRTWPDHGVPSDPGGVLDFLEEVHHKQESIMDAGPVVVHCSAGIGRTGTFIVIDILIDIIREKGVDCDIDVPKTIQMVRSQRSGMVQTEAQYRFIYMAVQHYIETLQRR
# Experimental: This experiment evaluates the inhibitory effect of the test compounds on SHP2 enzyme activity by detecting the reaction between the human recombinant protein SHP2 enzyme and the substrate.
# The stock solutions of the reaction buffer components were thawed and mixed homogeneously at room temperature, to prepare the reaction buffer (55 mM HEPES pH = 7.2 (Sigma, Cat. No. #PHR1428), 100 mM NaCl (Beyotime, Cat. No. #ST374, 5 M solution), 0.5 mM EDTA (Beyotime, Cat. No. #ST066), 1 mM DL-Dithiothreitol (DTT) (Sigma, Cat. No. #D9779), 0.002% BSA (Solarbio, Cat. No. #A8010), 0.001% Brij35 (Brij® L23 solution (Brij35) (Sigma, Cat. No. #B4184)). The SHP2 enzyme (catalytic domain, amino acid sequence 224-528, expressed and purified by GenScript) was thawed slowly on ice. 1 µL of this solution (1.37 mg/mL) was added to 386 µL of the reaction buffer to dilute it to 100 nM. Then, 120 µL of the 100 nM SHP2 enzyme solution was added to 2880 µL of reaction buffer to prepare a 4 nM SHP2 enzyme working solution. The test compounds and the specific inhibitor of SHP2 (11a-1, used as a positive control, Zeng, L. et al., J. Med. Chem. 2014, 57, 6594-6609) were prepared as 10 mM DMSO solutions. 10 µL of the 10 mM compound solution was mixed with 20 µL of DMSO solution, and then serially diluted 3-fold, resulting in 10 concentrations. 1 µL of the serially diluted solution was mixed with 99 µL of reaction buffer to obtain a 10-fold diluted compound working solution.
# A 96-well black half-area microplate (Greiner, catalog #675076) was used. 25 µL of 4 nM SHP2 enzyme working solution and 5 µL of 10x compound working solution were added to each well and incubated at room temperature for 30 minutes. 15 µL of DiFMUP substrate (Thermo Fisher Scientific, catalog #D6567) was added to 2985 µL of reaction buffer to prepare a 50 µM substrate working solution. After incubation of the compounds and SHP2 enzyme, 20 µL of the 50 µM substrate working solution was added to each well and incubated at room temperature for 5 minutes. The plate was then read on a multi-mode microplate reader (BioTek, Synergy H1) at 340 nm/450 nm fluorescence.
# Data were analyzed using GraphPad Prism 9.0 software. A non-linear S-curve regression dose-response-inhibition equation was used to fit the data and generate the dose-response curve, from which the IC50 value was calculated. [formula]
SMILES,IC50 [1] [nM],"SHP2 IC50 times lower than control compound 11a-1 ([1]; relative to 11a-1, IC50 = 0.108 µM)",IC50 (KYSE520) [µM]
CC1(n2c(-c3ccc(NC(=O)C(=O)Nc4ccc(N5CCC6(CCC(CO)C6)CC5)cc4)cc3)cc3cc(F)c(-c4nnn[nH]4)cc32)CCC1 (stereo not shown) [Example 107],138,–,0.101
CC1(n2c(-c3ccc(NC(=O)C(=O)Nc4ccc(N5CCC6(CCC(CO)CC6)CC5)cc4)cc3)cc3cc(F)c(-c4nnn[nH]4)cc32)CCC1 [Example 113],114,–,0.116
CC1(n2c(-c3ccc(NC(=O)C(=O)Nc4ccc(N5CC6CC(CO)CC6C5)cc4)cc3)cc3cc(F)c(-c4nnn[nH]4)cc32)CCC1 (stereo not shown) [Example 120],55,–,0.115

# Second part, led by results:
IC50 [1] [nM],"SHP2 IC50 times lower than control compound 11a-1 ([1]; relative to 11a-1, IC50 = 0.108 µM)",SMILES,IC50 (KYSE520) [µM]
103,–,O=C(Nc1ccc(-c2cc3cc(F)c(-c4nnn[nH]4)cc3n2C2CCC2)cc1)C(=O)Nc1ccc(N2CCC3(CCC(CO)C3)CC2)cc1 (stereo not shown) [Example 106],0.11
36,3-4 times,CC1(n2c(-c3ccc(NC(=O)C(=O)Nc4ccc(N5CC6COCC6C5)cc4)cc3)cc3cc(F)c(-c4nnn[nH]4)cc32)CCC1 (stereo not shown) [Example 115],0.11
55,–,O=C(Nc1ccc(-c2cc3cc(F)c(-c4nnn[nH]4)cc3n2C2CCC2)cc1)C(=O)Nc1ccc(N2CC3CC(CO)CC3C2)cc1 (stereo not shown) [Example 119],0.105
